Assay results: US4493838A, “Medicaments containing derivatives of 3-chloro-quinoline” (Pharmindustrie, priority 1980, dated 1985)
pKd, pKi: −log10 of the molar value.

Molecular target: cerebral receptor sites of the benzodiazepines
Experiment: not given
Settings: 3H-Diazepam; constant used in the formula for Ki; read-out: KD (constant of affinity); cited from earlier work

SMILES | pKd
CN1C(=O)CN=C(c2ccccc2)c2cc(Cl)ccc21 [3H Diazepam] | 5.56

Molecular target: cerebral receptor sites of the benzodiazepines
Experiment: Affinity for the cerebral receptor sites of the benzodiazepines (displacement of 3H-Diazepam, method of Mohler et al.)
Settings: displacement of 3H-Diazepam from its binding site; Ki calculated from IC50, C and KD
Text: The products have been tested according to the method of Mohler et al., Life Science, 1977, 20, 2101, which is relied on herein.

SMILES | pKi
Clc1cnc2ccccc2c1CCC1CCNCC1 [Example 1, 3-Chloro-4-[2-(4-piperidyl)-ethyl]-quinoline] | 5.70
COc1ccc2ncc(Cl)c(CCC3CCNCC3)c2c1 [Example 3, 3-Chloro-6-methoxy-4-[2-(4-piperidyl)-ethyl]-quinoline] | 4.92
Cc1nc2ccccc2c(CCC2CCNCC2)c1Cl [Example 4, 2-Methyl-3-chloro-4-[2-(4-piperidyl)-ethyl]-quinoline] | 6.00
Clc1c(-c2ccccc2)nc2ccccc2c1CCC1CCNCC1 [Example 5, 2-Phenyl-3-chloro-4-[2-(4-piperidyl)-ethyl]-quinoline] | 6.30
Clc1cnc2ccccc2c1CC1CCNCC1 [Example 6, 3-Chloro-4-[(4-piperidyl)-methyl]-quinoline] | 5.30
Cc1cccc2c(CC3CCNCC3)c(Cl)cnc12 [Example 8, 3-Chloro-8-methyl-4-[(4-piperidyl)-methyl]-quinoline] | 5.00
Clc1cc2ccccc2nc1CCC1CCNCC1 [Example 9, 3-Chloro-2-[2-(4-piperidyl)-ethyl]-quinoline] | 5.30
